According to PMC8399014, “Design of Multifaceted Antioxidants: Shifting towards Anti-Inflammatory and Antihyperlipidemic Activity” (Molecules, 2021):
Read-outs that look alike come from different tables or passages of the source. Marks after values point to notes of the source that are not given here.

How the values were obtained:
[1] = molecular target: T1, soybean lipoxygenase (LOX-3) (Glycine max, UniProt P09186); assay: Soybean lipoxygenase (LOX-3) inhibition; type: biochemical; details: after 5 min of incubation; sodium linoleate 100 μM, pH 9.0; read-out: IC50 Value on LOX-3
T1 sequence (P09186 1-857): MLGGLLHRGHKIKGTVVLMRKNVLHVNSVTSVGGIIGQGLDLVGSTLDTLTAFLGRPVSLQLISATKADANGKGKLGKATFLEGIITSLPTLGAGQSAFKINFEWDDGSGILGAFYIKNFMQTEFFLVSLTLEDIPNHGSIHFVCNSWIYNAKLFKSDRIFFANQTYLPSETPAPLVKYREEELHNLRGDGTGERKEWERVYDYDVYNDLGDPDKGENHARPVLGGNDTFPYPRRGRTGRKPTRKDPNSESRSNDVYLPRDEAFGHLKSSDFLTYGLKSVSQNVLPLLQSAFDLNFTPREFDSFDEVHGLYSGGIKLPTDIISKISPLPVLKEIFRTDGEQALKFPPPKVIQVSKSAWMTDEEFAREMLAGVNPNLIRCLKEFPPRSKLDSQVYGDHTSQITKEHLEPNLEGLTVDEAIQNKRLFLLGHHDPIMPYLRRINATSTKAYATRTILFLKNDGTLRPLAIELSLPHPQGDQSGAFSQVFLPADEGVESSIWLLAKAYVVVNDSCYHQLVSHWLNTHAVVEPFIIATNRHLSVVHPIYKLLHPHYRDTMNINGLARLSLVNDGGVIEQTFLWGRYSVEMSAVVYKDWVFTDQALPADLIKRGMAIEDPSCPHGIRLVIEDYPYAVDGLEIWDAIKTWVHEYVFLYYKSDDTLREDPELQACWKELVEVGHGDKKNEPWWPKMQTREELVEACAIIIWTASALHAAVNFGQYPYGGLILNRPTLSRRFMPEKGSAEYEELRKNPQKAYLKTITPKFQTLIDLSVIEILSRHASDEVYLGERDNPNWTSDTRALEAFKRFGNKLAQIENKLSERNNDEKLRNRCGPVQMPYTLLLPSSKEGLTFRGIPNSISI
Protocol: The anti-inflammatory effect of the synthesized compounds was initially evaluated in vitro, via their ability to inhibit soybean lipoxygenase (LOX-3).
Lipoxygenase activity was determined using soybean lipoxygenase (250 U/mL) and sodium linoleate (100 μM) as substrate, in Tris–HCl buffer pH 9.0. The test compounds dissolved in methanol were added and the reaction was monitored for 5 min at 28 °C, recording absorbance at 234 nm.

[2] = tested on: carrageenan-induced mouse paw edema; assay: Carrageenan-induced mouse paw edema; type: in vivo; details: for inhibition in vivo at 300 µmol/kg: Mus musculus, ip, 0.30 mmol/kg i.p., 3.5 h after carrageenan, mean of 6 animals, read-out: % Edema Reduction; for improvement in anti-inflammatory activity: compared to parent flufenamic acid (g) or flufenamol (h)
Protocol: In vivo anti-inflammatory activity of the synthesized compounds was evaluated as mouse paw edema reduction. Paw edema was induced by subcutaneous injection of a 2% carrageenan suspension in the right paw of mice, the left serving as the control. The activity of the tested compounds (at 0.30 mmol/kg of body weight, i.p.), expressed as % reduction in paw edema 3.5 h after carrageenan injection, is shown in Table 2. […] Moreover, compounds 9 and 10 (antioxidant derivatives of mefenamic acid) caused a 1.5–2-fold improvement in edema reduction compared to that of the parent mefenamic acid (i).
For the in vivo anti-inflammatory activity, Wistar male rats or C57BL/6 mice were injected with 0.025 mL carrageenan (2% w/v solution in saline) i.d. into the right hind paw, with the left paw serving as the control. The test compounds (300 μmol/kg) were given, i.p., after the carrageenan injection, and 3.5 h later, the produced edema was estimated as the paw weight increase. Results are expressed as percentage of the reduction in paw edema and are the means for six animals (per compound).

[3] = tested on: experimentally induced hyperlipidemic mouse model; assay: Tyloxapol (Triton WR 1339)-induced hyperlipidemia; type: in vivo, mice; details: 84 μmol/kg i.p.; 24 h after tyloxapol
Protocol: Acute hyperlipidemia was achieved, i.p., by the administration of tyloxapol (Triton WR 1339). The antihyperlipidemic effect of the tested compounds was evaluated as the decrease in total cholesterol (TC) and triglyceride (TG) levels in plasma 24 h after tyloxapol administration. The results are shown in Figure 4A,B. Compounds 9 and 10 reduced TC levels in plasma by 73% and 50%, respectively, and TG levels by 76% and 41%, respectively.
An aqueous solution of Triton WR 1339 was given, i.p., to mice (400 mg/kg of body weight) and one hour later the test compounds (84 μmol/kg of body weight), dissolved in saline or saline only were administered, i.p. After 24 h, blood was taken from the aorta/heart and used for the determination of plasma total cholesterol (TC) and triglyceride (TG) levels, using commercially available kits. Levels of plasma lipids were determined in duplicate while the values presented were the mean from eight animals (per compound).

[4] = Radical scavenging of DPPH; details: DPPH 200 μM, after incubation for 30 min
Protocol: The antioxidant activity of compounds 1–17 was evaluated via their ability to scavenge the free radical DPPH.
Compounds dissolved in absolute methanol at concentrations of 25–400 μM were added to an equal volume of a methanolic solution of DPPH (final concentration 200 μM) at room temperature (22 ± 2 °C). Absorbance (517 nm) was recorded at different time intervals for 1 h and results were expressed as IC50 (μM) for DPPH after incubation for 30 min [3].

[5] = tested on: carrageenan-induced mouse paw edema; details: cited from earlier work

| Compound | IC50 [1] [µM] | inhibition in vivo at 300 µmol/kg [2] [%] | melting point [°C] | further results |
| --- | --- | --- | --- | --- |
| CC(C)Cc1ccc(C(C)C(=O)OCc2cc(C(C)(C)C)c(O)c(C(C)(C)C)c2)cc1 (stereo not drawn) [Compound 1, 3,5-di-tert-butyl-4-hydroxybenzyl 2-(4-isobutylphenyl)propanoate] | 22 | 26 | – | – |
| CC(C)Cc1ccc(C(C)COC(=O)c2cc(C(C)(C)C)c(O)c(C(C)(C)C)c2)cc1 (stereo not drawn) [Compound 2, 2-(4-isobutylphenyl)propyl 3,5-di-tert-butyl-4-hydroxybenzoate] | – | 56 | – | – |
| COc1ccc2cc(C(C)COC(=O)c3cc(C(C)(C)C)c(O)c(C(C)(C)C)c3)ccc2c1 (stereo not drawn) [Compound 4, 2-(6-methoxynaphthalen-2-yl)propyl 3,5-di-tert-butyl-4-hydroxybenzoate] | 64 | 49 | 154.1 to 155 | – |
| Cc1c(Cl)cccc1Nc1ccccc1C(=O)OCc1cc(C(C)(C)C)c(O)c(C(C)(C)C)c1 [Compound 5, 3,5-di-tert-butyl-4-hydroxybenzyl 2-((3-chloro-2-methylphenyl)amino)benzoate] | > 200 | 55 | – | – |
| Cc1c(Cl)cccc1Nc1ccccc1COC(=O)c1cc(C(C)(C)C)c(O)c(C(C)(C)C)c1 [Compound 6, 2-((3-chloro-2-methylphenyl)amino)benzyl 3,5-di-tert-butyl-4-hydroxybenzoate] | > 150 | 67 | 141.1 to 141.8 | – |
| CC(C)(C)c1cc(COC(=O)c2ccccc2Nc2cccc(C(F)(F)F)c2)cc(C(C)(C)C)c1O [Compound 7, 3,5-di-tert-butyl-4-hydroxybenzyl 2-((3-(trifluoromethyl)phenyl)amino)benzoate] | 152 | 38 | 87.2 to 88 | improvement in anti-inflammatory activity [2]: 2–2.5 fold |
| CC(C)(C)c1cc(C(=O)OCc2ccccc2Nc2cccc(C(F)(F)F)c2)cc(C(C)(C)C)c1O [Compound 8, 2-((3-(trifluoromethyl)phenyl)amino)benzyl 3,5-di-tert-butyl-4-hydroxybenzoate] | 150 | 48 | 119.9 to 120.5 | improvement in anti-inflammatory activity [2]: 2–2.5 fold |
| Cc1cccc(Nc2ccccc2COC(=O)c2cc(C(C)(C)C)c(O)c(C(C)(C)C)c2)c1C [Compound 10, 2-((2,3-dimethylphenyl)amino)benzyl 3,5-di-tert-butyl-4-hydroxybenzoate] | 15 | 54 | 136.3 to 136.9 | reduction of total cholesterol (TC) levels in plasma [3]: 50%; reduction of triglyceride (TG) levels in plasma [3]: 41%; improvement in edema reduction ([2]; compared to parent mefenamic acid (i)): 1.5–2 fold |
| CC(C)(C)c1cc(COC(=O)Cc2ccccc2Nc2c(Cl)cccc2Cl)cc(C(C)(C)C)c1O [Compound 11, 3,5-di-tert-butyl-4-hydroxybenzyl 2-(2-((2,6-dichlorophenyl)amino)phenyl)acetate] | 142 | 40 | 149 to 149.7 | – |
| CC(C)(C)c1cc(C(=O)OCCc2ccccc2Nc2c(Cl)cccc2Cl)cc(C(C)(C)C)c1O [Compound 12, 2-((2,6-dichlorophenyl)amino)phenethyl 3,5-di-tert-butyl-4-hydroxybenzoate] | 122 | 54 | 147.8 to 149.2 | – |
| COc1ccc2c(c1)c(CC(=O)OCc1cc(C(C)(C)C)c(O)c(C(C)(C)C)c1)c(C)n2C(=O)c1ccc(Cl)cc1 [Compound 13, 3,5-di-tert-butyl-4-hydroxybenzyl 2-(1-(4-chlorobenzoyl)-5-methoxy-2-methyl-1H-indol-3-yl)acetate] | 68 | 39 | 149.3 to 149.9 | – |
| Cc1c(C)c2c(c(C)c1O)CCC(C)(C(=O)OCC(C)c1ccc(CC(C)C)cc1)O2 (stereo not drawn) [Compound 14, 2-(4-isobutylphenyl)propyl6-hydroxy-2,5,7,8-tetramethylchromane-2-carboxylate] | > 150 | 42 | 69.2 to 70 | IC50 [4]: 34 µM |
| COc1ccc2cc(C(C)COC(=O)C3(C)CCc4c(C)c(O)c(C)c(C)c4O3)ccc2c1 (stereo not drawn) [Compound 15, 2-(6-methoxynaphthalen-2-yl)propyl 6-hydroxy-2,5,7,8-tetramethylchromane-2-carboxylate] | 9 | 55 | – | reduction of total cholesterol (TC) levels in plasma [3]: 42%; reduction of triglyceride (TG) levels in plasma [3]: 65%; IC50 [4]: 147 µM |
| Cc1c(Cl)cccc1Nc1ccccc1COC(=O)C1(C)CCc2c(C)c(O)c(C)c(C)c2O1 (stereo not drawn) [Compound 16, 2-((3-chloro-2-methylphenyl)amino)benzyl 6-hydroxy-2,5,7,8-tetramethylchromane-2-carboxylate] | 54 | 54 | 150.4 to 151.3 | reduction of total cholesterol (TC) levels in plasma [3]: 55%; reduction of triglyceride (TG) levels in plasma [3]: 78%; IC50 [4]: 47 µM |
| COc1ccc2c(c1)c(CCOC(=O)C1(C)CCc3c(C)c(O)c(C)c(C)c3O1)c(C)n2C(=O)c1ccc(Cl)cc1 (stereo not drawn) [Compound 17, 2-(1-(4-chlorobenzoyl)-5-methoxy-2-methyl-1H-indol-3-yl)ethyl 6-hydroxy-2,5,7,8-tetramethylchromane-2-carboxylate] | > 150 | 45 | – | IC50 [4]: 76 µM |
| CC(C)Cc1ccc(C(C)C(=O)O)cc1 (stereo not drawn) [a, Ibuprofen] | – | – | – | % Edema Reduction ([5]; 0.30 mmol/kg i.p.): 57*** [5] % |
| CC(C)Cc1ccc(C(C)CO)cc1 (stereo not drawn) [b, Ibuprofenol, reference compound] | – | 66 | – | – |
| COc1ccc2cc(C(C)CO)ccc2c1 (stereo not drawn) [d, 2-(6-methoxynaphthalen-2-yl)propan-1-ol, reference compound] | 29 | 40 | – | – |
| Cc1c(Cl)cccc1Nc1ccccc1CO [f, (2-((3-chloro-2-methylphenyl)amino)phenyl)methanol] | – | 43 | 48.4 to 48.7 | – |
| O=C(O)c1ccccc1Nc1cccc(C(F)(F)F)c1 [g, Flufenamic acid] | – | – | – | % Edema Reduction ([5]; 0.15 mmol/kg i.p.): 19**^a [17] % |
| OCc1ccccc1Nc1cccc(C(F)(F)F)c1 [h, (2-((3-(trifluoromethyl)phenyl)amino)phenyl)methanol, reference compound] | – | 22 | – | – |
| Cc1cccc(Nc2ccccc2CO)c1C [j, (2-((2,3-dimethylphenyl)amino)phenyl)methanol, reference compound] | – | 42 | – | – |
| O=C(O)Cc1ccccc1Nc1c(Cl)cccc1Cl [k, Diclofenac] | – | – | – | % Edema Reduction ([5]; 0.30 mmol/kg i.p.): 61*** [5] % |
| COc1ccc2c(c1)c(CC(=O)O)c(C)n2C(=O)c1ccc(Cl)cc1 [m, Indomethacin] | – | – | – | % Edema Reduction ([5]; 0.30 mmol/kg i.p.): 55*** [5] % |
